Patent publication US5932559A, “Treatment of hyperandrogenic conditions” (Merck & Co., Inc., priority 1996, dated 1999)

Columns and labels:
[1] = target: T1, type 2 5α-reductase (Homo sapiens, UniProt P31213); assay: Progress curves of DHT formation, time course of inhibition of baculovirus expressed type 2 5α-reductase; format: biochemical; conditions: 20 nM inhibitor, pH 7.2, 37° C.
T1 construct: made in house
T1 sequence (P31213 1-254): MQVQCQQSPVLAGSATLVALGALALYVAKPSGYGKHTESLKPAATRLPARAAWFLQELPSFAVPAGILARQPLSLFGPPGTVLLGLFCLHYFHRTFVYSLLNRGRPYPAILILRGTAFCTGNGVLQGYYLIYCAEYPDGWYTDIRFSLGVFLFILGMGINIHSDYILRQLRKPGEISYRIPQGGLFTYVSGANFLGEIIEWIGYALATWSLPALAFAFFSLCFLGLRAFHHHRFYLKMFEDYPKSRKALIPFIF
Procedure: Ethanol is included at 1% final concentration as the vehicle for introduction of inhibitors. The rate of production of [^3 H]dihydrotestosterone is approximately constant for up to 2 hours or 10% consumption of substrate. A unit of enzyme activity was defined as 1 pmol product/min, and is equal to 444 fmol enzyme under these conditions.
After quenching the reactions with an equal volume, or more, of water containing 1% trifluoroacetic acid, the [^3 H]dihydrotestosterone is isolated by direct injection onto a reverse phase C-18 column (Vydac 4.6×250 mm, 300 Å, 5 micron), which is run in an isocratic system of 40% water (containing 0.1% trifluoroacetic acid) and 60% methanol at 1 mL/min. […] The effluent containing the [^3 H]dihydrotestosterone peak (6 mL) is collected in a liquid scintillation vial and counted with AQUASOL 2 (14 mL, New England Nuclear) with an efficiency of 0.309. […]
The native human enzyme was from prostate (type 2) or scalp (type 1) tissue, and the recombinant human enzymes were produced by the baculovirus expression system of Anderson, et al. (Chan, H K, Geissler, W M, Anderson, S, Sex Hormones and Antihormones in Endocrine Dependent Pathology: Basic and Clinical Aspects, M. Motta and M. Serio, eds., Elsevier Science 1994). […] Enzyme concentrations were determined by titration with finasteride, or [^3 H]finasteridem, or from catalytic activity using kcat and Km values. […]

[2] = system: human prostate (type 2) isozyme; conditions: cited from earlier work
[3] = system: human skin (type 1) isozyme; conditions: cited from earlier work
[4] = system: dihydrotestosterone; conditions: after withdrawal of finasteride; cited from earlier work
[5] = system: native human prostate enzyme; conditions: read-out: Km (Faller et al.), neutral pH; cited from earlier work
[6] = target: T1, type 2 5α-reductase; assay: Kinetic constants of baculovirus-expressed type 2 5α-reductase under the standard assay conditions; format: biochemical
Text: Ethanol is included at 1% final concentration as the vehicle for introduction of inhibitors. […] A unit of enzyme activity was defined as 1 pmol product/min, and is equal to 444 fmol enzyme under these conditions.
When tissue extracts are the source of enzyme, the quenched reactions are clarified by centrifugation at 10,000×g before analysis.
The molecular weight was taken to be about 30,000 in estimating enzyme purity.

Structure (SMILES): CCN(CC)C(=O)[C@H]1CC[C@H]2[C@@H]3CC[C@H]4OC(=O)C=C[C@]4(C)[C@H]3CC[C@]12C [L-682,299, 17β-(N-diethyl)carbamoyl-4-oxa-5α-androst-1-en-3-one]
- velocity at infinite-time [1]: essentially zero
- inhibition of the enzyme at infinite time ([1]; inhibition developed slowly with time): total inhibition

Structure (SMILES): CC(C)(C)NC(=O)[C@H]1CC[C@H]2[C@@H]3CC[C@H]4NC(=O)C=C[C@]4(C)[C@H]3CC[C@]12C [finasteride, 17β-(N-tert-butylcarbamoyl)-3-oxo-4-aza-5α-androst-1-ene-3-one]
- rate constant of binding to the human prostate isozyme ([2]; Faller et al., slow-binding): 270000 M⁻¹ s⁻¹
- inhibition type, human prostate (type 2) isozyme ([2]; Harris et al.): slow-binding inhibitors
- inhibition of type 2 isozyme, in words ([2]; predominates in the prostate): potently inhibited
- inhibition of human skin (type 1) isozyme at clinical doses, in words ([3]; at doses employed in the treatment of BPH): not a significant inhibitor
- sensitivity of type 1 isozyme, in words ([3]; sebaceous glands of most regions of skin tissue): relatively insensitive
- type 1 rate constant as percent of the rate constant against the prostate isozyme ([3]; type 1 vs type 2): about 1%
- time required for dihydrotestosterone to return to basal levels after withdrawal [4]: as long as two weeks

Structure (SMILES): C[C@]12CC[C@H]3[C@@H](CCC4=CC(=O)CC[C@@]43C)[C@@H]1CC[C@@H]2O [testosterone]
- Km [5]: 0.02 ± 0.003 µM
- Km ([6]; baculovirus-expressed type 2, pH 7.2, 37° C., read-out: Km for testosterone): 0.0246 ± 0.0007 µM
- turnover number kcat ([6]; type 2, pH 7.2, 37° C., by titration with finasteride): 0.075 ± 0.006 s⁻¹
